Test system: TGFβ1-induced expression of α-SMA protein in NHLF
Assay: α-SMA ELISA in TGFβ1-activated normal human lung fibroblasts
Type: cell-based
Details: TGFβ1 1 ng/ml, 48 h
Experimental: Serum-deprived NHLF were preincubated for 1 hour with RM-5061 before the activation with the profibrogenic cytokine TGFβ1 (1 ng/ml). After 48 hours of incubation, the expression of α-SMA was measured by ELISA. The obtained values were transformed into percentage inhibition over TGFβ1 control. Data are presented as mean (quadruplicates)±standard error of the mean (SEM). Statistical analyses were performed by kruskal-Wallis test followed by Dunn's multiple comparison tests, using GraphPad Prism 5.02 software. [*: p<0.05; **: p<0.01; ***: p<0.001 (comparison versus TGFβ1 1 ng/mL group)]. The curve fitting and the calculation of half maximal inhibitory concentration (IC50) were performed with XLFit software 5.3.1.3.
Cpd.5 was added to serum-deprived lung fibroblasts (NHLF) 1 hour before the activation with TGFβ1 (1 ng/ml). After 48 hours of incubation, the expression of α-SMA was measured by ELISA. The obtained values were transformed into percentage inhibition over TGFβ1 control. Data are presented as mean (triplicates)±standard deviation (SD). Statistical analyses were performed by one-way ANOVA followed by Bonferroni post-hoc tests, using Sigma Plot 11.0 software. [*: p<0.05; **: p<0.01; ***: p<0.001 (comparison versus TGFβ1 1 ng/mL group)].
The Normal Human Lung Fibroblasts (NHLF) (Lonza) were cultured in Fibroblast Basal Medium (FBM) (Lonza cat #CC-3131) that was supplemented with FGM-2 SingleQuots™ Kit (Lonza cat #CC-3132). The complete medium contains 2% fetal bovine serum. For the activation experiments with TGFβ1, the NHLF were plated at a density of 5×10^3 cells per well in 96-well plates. The next day, cell-culture medium was removed, and cells were washed with PBS (Invitrogen cat #14190). NHLF were deprived for 24 hours in serum-free, insulin-free and rhFGF-B-free medium. […]
The level of α-SMA was measured using a Sandwich ELISA. […]

| SMILES | effect on TGFβ1-induced α-SMA in NHLF | IC50 α-SMA in NHLF (compared with IC50 in human HSC) |
| --- | --- | --- |
| [2H]C([2H])([2H])C(=O)Oc1ccccc1C(=O)Nc1ncc([N+](=O)[O-])s1 [Cpd.5, 2-[(5-nitro-1,3-thiazol-2-yl)carbamoyl]phenyl (d3)ethanoate] | inhibits | – |
| CC(C)(C)[C@H](N)C(=O)Oc1ccccc1C(=O)Nc1ncc([N+](=O)[O-])s1 [RM-5061, (S)-2-(5-nitrothiazol-2-ylcarbamoyl)phenyl 2-amino-3,3-dimethylbutanoate] | inhibits | comparable IC50 |
